Assay results published in paper PMC10028261, “Structural and ligand binding analysis of the pet allergens Can f 1 and Fel d 7” (Frontiers in Allergy, 2023).

Experiments:
Type in all cases: binding
Can f 1 [1] = molecular target: T1, Can f 1 (Canis lupus, UniProt O18873); assay: […]-methyl HSQC NMR stoichiometry; settings: labelled compound (methyl-13C-oleate); annealed at 80°C, excess lipid removed, PBS; cholate extraction
T1 construct: wild-type (C118S gene reverted to Cys118), signal peptide absent, borders aa 27-171 for the C118S crystal construct; 6His-GST tag cut with TEV; E. coli BL21(DE3)

Fel d 7 [2] = molecular target: T2, Fel d 7 (Felis catus, UniProt E5D2Z5); assay: […]-methyl HSQC NMR stoichiometry; settings: labelled compound (methyl-13C-oleate); annealed at 80°C, excess lipid removed, PBS; cholate extraction
T2 construct: wild-type, signal peptide absent, aa 27-170 for the crystal construct; GST tag cut with TEV; E. coli BL21(DE3)

Fel d 7 [3] = molecular target: T2, Fel d 7; assay: ANS displacement assay; settings: 2 uM ANS, 0.2 mg/ml protein, RT, 1 h; fatty acid 10 uM (Methods) or 1 uM (Figure 4 legend)
Can f 1 [4] = molecular target: T1, Can f 1; assay: ANS displacement assay; settings: 2 uM ANS, 0.2 mg/ml protein, RT, 1 h; fatty acid 10 uM (Methods) or 1 uM (Figure 4 legend)

T1 sequence (O18873 27-171): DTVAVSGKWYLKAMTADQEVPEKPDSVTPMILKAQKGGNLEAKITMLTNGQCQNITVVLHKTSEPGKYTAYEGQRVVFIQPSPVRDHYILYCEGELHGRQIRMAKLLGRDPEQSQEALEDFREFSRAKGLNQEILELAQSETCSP
T2 sequence (E5D2Z5 27-170): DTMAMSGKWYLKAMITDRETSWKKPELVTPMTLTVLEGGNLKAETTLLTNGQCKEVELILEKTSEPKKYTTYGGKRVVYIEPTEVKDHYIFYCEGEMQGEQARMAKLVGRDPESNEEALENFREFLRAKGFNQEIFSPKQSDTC

stoichiometry (oleate:protein) (Can f 1 [1])	stoichiometry (oleate:protein) (Fel d 7 [2])	% fluorescence reduction (Fel d 7 [3]) [%]	% fluorescence reduction (Can f 1 [4]) [%]	Structure (SMILES)
2:1	2:1	–	–	CCCCCCCC/C=C\CCCCCCCC(=O)O [oleic acid]
–	–	> 50	> 50	CCCCC/C=C\C/C=C\CCCCCCCC(=O)NCC(=O)O [D10, Linoleoyl glycine]
–	–	> 50	> 50	CC/C=C\C/C=C\C/C=C\CCCCCCCC(=O)N[C@@H](Cc1ccc(O)cc1)C(=O)O [A2, N-(α-Linolenoyl) tyrosine]
–	–	> 50	> 50	CCCCCCCC/C=C\CCCCCCCC(=O)N[C@@H](CO)C(=O)O [A4, N-Oleoyl-L-serine]
